From ChEMBL document CHEMBL1201862, “PubChem BioAssay data set” (2004) come the findings set out here.

Test in all cases: DTP human tumour cell line panel, 48 h
In assay [1] the test system is DLD-1.
The test system of assay [2] is EKVX.
For assay [3], the system named is SF-539.
Assay [4] concerns M19-MEL.
Assay [5] has as its system DMS-273.
The subject of assay [6] is SN12C.
Assay [7] deals with A549.
Assay [8] has as its system XF498.
Assay [9] concerns SNB-78.
Assay [10] concerns SK-OV-3.
The subject of assay [11] is PC-3.
The subject of assay [12] is DU-145.
Assay [13] has as its system MDA-MB-435.
In assay [14] the test system is MDA-N.
For assay [15], the system named is Hs-578T.
Assay [16] has as its system CAKI-1.
The subject of assay [17] is MDA-MB-231.
Assay [18] relates to ACHN.
The test system of assay [19] is SR.
Assay [20] concerns BT-549.

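Grown in 96-well plates, cells were treated for 48 hours with each compound at five concentrations. Insufficient inhibition: endpoint recorded as highest concentration tested. GI50 = concentration required for 50% inhibition of growth.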 Activity calls are given as the source filed them. No stated cut-off is given here; in the data, active = GI50 up to about 1.1 µM and inactive = higher.

As a reminder, the GI50 is the concentration giving 50% growth inhibition. `Cc1ccc2nc3c(C(=O)NCCN(C)C)cccc3cc2c1`: the GI50 in assay [1] was 2.01 µM (inactive); in assay [2], 0.802 µM (active); in assay [3], 3.15 µM (inactive); in assay [4] it was 1.95 µM (inactive); in assay [5] it was 1.5 µM (inactive); in assay [6], 1.76 µM (inactive). Besides, the GI50 in assay [7] is 1.33 µM (inactive); in assay [8], 1.8 µM (inactive); in [9], 4.24 µM (inactive); in assay [10] it was 2.39 µM (inactive).
On to `SC1=NC2=C(CSC/C2=C\c2cccc(Br)c2)C(c2cccc(Br)c2)N1` (configuration not stated), for which the GI50 in assay [11] was 46.7 µM (inactive); in assay [12], > 100 µM (inactive); in assay [2] it was 42.3 µM (inactive); in assay [13], 41.3 µM (inactive); in [3], > 100 µM (inactive); in [14], 68.2 µM (inactive). Also, the GI50 in [15], in assay [6], in assay [7], in assay [16], in assay [17] and in assay [10] was > 100 µM (inactive) throughout. Moreover, in assay [18], the GI50 is > 100 µM (inactive).
With `COC(=O)C(NC(=O)c1ccccc1)C(c1ccc(Cl)cc1)P(=O)(OC)OC` (configuration not stated), the GI50 in [1], in [2], in assay [3], in assay [4], in [5] and in assay [19] was > 100 µM (inactive) throughout. The GI50 in assay [6], in assay [7], in assay [8], in assay [16], in [9] and in assay [10] was > 100 µM (inactive) in each case. The GI50 in [18] was > 100 µM (inactive).
Turning to `CCOC(=O)N1CCN(c2ccc3c(C)cc(C)nc3n2)CC1`, the GI50 in assay [11], in assay [12], in assay [2], in [13], in assay [3] and in [14] was > 100 µM (inactive) throughout. Besides, the GI50 in [15], in assay [19], in [6], in assay [7], in [20] and in [16] was > 100 µM (inactive) each time. The GI50 in [17], in assay [10] and in assay [18] was > 100 µM (inactive) each time.
With `CC1OC1C(=O)C1(O)C(C)C(O)C23OC2(C(O)c2c(O)cccc2C3=O)C1O` (configuration not stated) [CERVICARCIN], the GI50 is 0.167 µM (active) in assay [1]; 0.0908 µM (active) in assay [2]; 0.0647 µM (active) in assay [3]; 0.0933 µM (active) in assay [4]; 0.184 µM (active) in assay [5]; 0.0557 µM (active) in assay [6]. The concentration for 50% growth inhibition (GI50) was 0.0488 µM (active) in assay [7]; 0.253 µM (active) in assay [8]; 0.0497 µM (active) in assay [16]; 0.267 µM (active) in assay [9]; 0.111 µM (active) in assay [10].
Take `COc1ccc2c3c1O[C@H]1C[C@@H](O)C=C[C@@]31CCN(C)C2` [GALANTAMINE]: the GI50 in assay [1] is 50 µM (inactive); in assay [2], > 150 µM (inactive); in assay [3] it was > 18.9 µM (inactive); in assay [4], > 150 µM (inactive); in assay [5], > 150 µM (inactive); in assay [6] it was > 150 µM (inactive). For the same molecule, the GI50 was > 150 µM (inactive) in [7]; > 150 µM (inactive) in assay [8]; 114 µM (inactive) in [16]; 103 µM (inactive) in assay [9]; > 150 µM (inactive) in [10].
For the molecule `O=c1cc[nH]c(=O)[nH]1` [URACIL], the GI50 in assay [1] was 532 µM (inactive); in assay [2], 294 µM (inactive); in [3], 378 µM (inactive); in assay [4], 279 µM (inactive); in [5] it was 403 µM (inactive); in assay [6], 502 µM (inactive). Further, the GI50 is 435 µM (inactive) in assay [7]; 4.23 µM (inactive) in assay [8]; 307 µM (inactive) in [16]; 475 µM (inactive) in assay [9]; 813 µM (inactive) in assay [10].
Turning to `CC(=O)O[C@H]1CC[C@H]2[C@@H]3CC[C@H]4Nc5c(cnn5S(C)(=O)=O)C[C@]4(C)[C@H]3CC[C@]12C`, the GI50 in assay [11] was 64.4 µM (inactive); in assay [12], > 100 µM (inactive); in assay [13], > 100 µM (inactive); in assay [14] it was > 100 µM (inactive); in assay [15], 45.6 µM (inactive); in assay [19], > 100 µM (inactive). Besides, the GI50 in [6] is > 100 µM (inactive); in [20], 27.5 µM (inactive); in [16], 38.1 µM (inactive); in assay [17], > 100 µM (inactive); in [10], 77.6 µM (inactive).
With `COC(=O)Nc1nc2cc(C(=O)c3ccc[nH]3)ccc2[nH]1`, the 50% growth inhibitory concentration (GI50) in assay [11] was 0.348 µM (active); in assay [12], 1.82 µM (inactive); in [13], 0.117 µM (active); in assay [3], 2.4 µM (inactive); in [14], 0.134 µM (active); in assay [15] it was 1.54 µM (inactive). Also, the GI50 in assay [6] was 1.15 µM (inactive); in assay [20], > 100 µM (inactive); in assay [16], 0.332 µM (active); in [17], 20.6 µM (inactive); in assay [10] it was 2.03 µM (inactive).
Regarding `CN1C2CCC1C(CO)C(=O)C2` (configuration not stated), the GI50 in assay [11] was > 100 µM (inactive); in assay [12] it was > 100 µM (inactive); in [13] it was > 100 µM (inactive); in assay [3] it was 23.2 µM (inactive); in [15], > 100 µM (inactive); in assay [19] it was 26.1 µM (inactive). Besides, the GI50 in assay [20] is > 100 µM (inactive); in assay [16] it was 32.7 µM (inactive); in [17] it was > 100 µM (inactive); in assay [10], > 100 µM (inactive); in assay [18] it was 38.6 µM (inactive).
`Cc1cc(=O)oc2cc(OCC(O)COC(C)C)ccc12` (configuration not stated): the GI50 was > 100 µM (inactive) in [11]; > 100 µM (inactive) in assay [12]; > 100 µM (inactive) in [2]; 91.4 µM (inactive) in assay [14]; 97.1 µM (inactive) in assay [15]; > 100 µM (inactive) in assay [19]. Also, the GI50 in assay [6], in assay [7], in assay [16], in assay [17], in assay [10] and in [18] was > 100 µM (inactive) in each case.
Turning to `CN1C2CC(=O)CC1[C@H](O)[C@@H]2O`, the GI50 in assay [11], in [12], in assay [2], in [13], in assay [14] and in assay [19] was > 100 µM (inactive) throughout. The GI50 in assay [6], in [20] and in [17] was > 100 µM (inactive) each time.
Take `[O-][S+]1c2ccccc2N=C(c2ccc3ccccc3c2)CC1c1ccccc1` (configuration not stated): the GI50 is 19 µM (inactive) in assay [1]; 25.1 µM (inactive) in [2]; 18.4 µM (inactive) in assay [3]; 17.9 µM (inactive) in assay [4]; 38.6 µM (inactive) in assay [5]; 17.9 µM (inactive) in assay [19]. The GI50 in [6] is 34.4 µM (inactive); in assay [7], 21.3 µM (inactive); in assay [8], 23.9 µM (inactive); in assay [16], 25.1 µM (inactive); in [9], 47.3 µM (inactive); in assay [10] it was 36.2 µM (inactive). Also, in [18], the GI50 was 16.4 µM (inactive).
In the case of `CC(C)C(/C=C/c1ccc(Cl)cc1)=N\NC(=O)N/N=C(/C=C/c1ccc(Cl)cc1)C(C)C`, the GI50 is > 100 µM (inactive) in assay [11]; > 100 µM (inactive) in assay [12]; 21.4 µM (inactive) in [2]; 30.1 µM (inactive) in assay [13]; 16.7 µM (inactive) in [3]; 36.6 µM (inactive) in assay [14]. The GI50 in assay [15] was 20.1 µM (inactive); in assay [19] it was 30.8 µM (inactive); in assay [6], 18.4 µM (inactive); in [7], 19 µM (inactive); in assay [20], 34.4 µM (inactive); in assay [16] it was 18.5 µM (inactive). The results for the GI50 in assay [17], in assay [10] and in assay [18] were 22.3 µM (inactive), 32.4 µM (inactive) and 29.2 µM (inactive), respectively.
`COc1cc2c(cc1OC)C(=O)/C(=C/c1cc(OC)c(OC)c(OC)c1)C2`: the GI50 in assay [11], in assay [12], in [13], in [14], in [15] and in assay [19] was > 100 µM (inactive) each time. Besides, the GI50 was > 100 µM (inactive) in assay [6]; 36.9 µM (inactive) in assay [20]; > 100 µM (inactive) in [16]; 66.7 µM (inactive) in [17]; > 100 µM (inactive) in assay [10].
